Assay results published in patent US20160220569A1, “CDK4/6 Inhibitor Dosage Formulations For The Protection Of Hematopoietic Stem And Progenitor Cells During Chemotherapy” (G1 Therapeutics, Inc., priority 2015, published 2016).

What was measured:
[1] = Nonclinical IV and oral pharmacokinetics in rats; format: in vivo; settings: rat, plasma
Source text: Systemic exposure in rats as measured by Cmax and AUClast was dose-dependent.

CDK4/6 = CDK4/6 inhibition in vitro and in vivo studies
[2] = system: NCI-H69 mice small cell lung cancer (SCLC) xenograft; experiment: NCI-H69 small cell lung cancer xenograft study; format: in vivo
Source text: FIG. 61 is a graph of tumor size (cubic millimeters) vs time (days) for a small cell lung cancer xenograft model with various dosing regimens.

## CN1CCN(c2ccc(Nc3ncc4cc5n(c4n3)C3(CCCCC3)CNC5=O)nc2)CC1 [Compound 1, 2′-((5-(4-methylpiperazin-1-yl)pyridin-2-yl)amino)-7′,8′-dihydro-6′H-spiro[cyclohexane-1,9′-pyrazino[1′,2′:1,5]pyrrolo[2,3-d]pyrimidin]-6′-one]
[1]; both sexes, rats, after IV administration
  half-life: ~240 min
[1]; oral
  bioavailability: 60 to 70%
CDK4/6
  CDK4/6 inhibitor characterisation: highly potent and selective CDK4/6 inhibitor
[2]; Compound 1 100 mg/kg qdx5dx4, absence of Topotecan
  tumor growth suppression: did not have tumor grown suppression
[2]; Compound 1 10, 50 or 100 mg/kg with Topotecan 0.6 mg/kg
  tumor suppression vs Topotecan alone: significantly higher level of tumor suppression
